In ChEMBL document CHEMBL4414605 (J Med Chem, 2019):

How the values were obtained:
D(2) dopamine receptor [1] = target: T1, D(2) dopamine receptor (Homo sapiens, UniProt P14416)
Description: Displacement of PPHT-red from SNAP-tagged human D2LR expressed in CHOK1 cell membranes assessed as association rate constant by TR-FRET assay

D(2) dopamine receptor [2] = target: T1, D(2) dopamine receptor; remark: listed apart in the source
Description: Displacement of PPHT-red from SNAP-tagged human D2LR expressed in CHOK1 cell membranes assessed as dissociation half-life by TR-FRET assay

D(2) dopamine receptor [3] = target: T1, D(2) dopamine receptor; remark: listed apart in the source
Description: Displacement of PPHT-red from SNAP-tagged human D2LR expressed in CHOK1 cell membranes assessed as dissociation rate constant by TR-FRET assay

D(2) dopamine receptor [4] = target: T1, D(2) dopamine receptor; remark: listed apart in the source
Description: Binding affinity to SNAP-tagged human D2LR expressed in CHOK1 cell membranes assessed as association rate constant by TR-FRET assay

D(2) dopamine receptor [5] = target: T1, D(2) dopamine receptor; remark: listed apart in the source
Description: Binding affinity to SNAP-tagged human D2LR expressed in CHOK1 cell membranes assessed as dissociation rate constant by TR-FRET assay

D(2) dopamine receptor [6] = target: T1, D(2) dopamine receptor; conditions: 10 min, read-out: INH

T1 sequence (P14416 whole entry): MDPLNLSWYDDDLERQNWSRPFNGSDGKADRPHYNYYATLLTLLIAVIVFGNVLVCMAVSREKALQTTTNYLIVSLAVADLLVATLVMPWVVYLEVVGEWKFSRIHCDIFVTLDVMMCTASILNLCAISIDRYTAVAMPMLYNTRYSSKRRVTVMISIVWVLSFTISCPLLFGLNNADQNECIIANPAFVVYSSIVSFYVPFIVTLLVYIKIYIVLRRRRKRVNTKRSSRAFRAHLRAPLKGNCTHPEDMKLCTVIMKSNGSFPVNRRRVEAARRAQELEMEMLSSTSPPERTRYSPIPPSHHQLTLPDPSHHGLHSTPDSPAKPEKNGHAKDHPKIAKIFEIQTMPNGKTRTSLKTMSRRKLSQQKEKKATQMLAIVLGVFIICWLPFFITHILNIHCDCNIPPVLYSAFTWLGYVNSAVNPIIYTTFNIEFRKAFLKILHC

Row | SMILES | Ka (D(2) dopamine receptor [1]) | T1/2 (D(2) dopamine receptor [2]) | Kdiss (D(2) dopamine receptor [3]) | Ka (D(2) dopamine receptor [4]) | Kdiss (D(2) dopamine receptor [5]) | inhibition at 10 µM (D(2) dopamine receptor [6])
1 | O=C(CCCN1CCC(O)(c2ccccc2-c2ccccc2Cl)CC1)c1ccc(F)cc1 | 3.25 ×10⁸ /M/min | 53.4 s | 0.0137 s⁻¹ |  |  | 
2 | O=C(CCCN1CCC(O)(c2ccc(Cl)cc2)CC1)c1ccccc1F |  | 41.4 s | 0.0173 s⁻¹ |  |  | 
3 | O=C(CCCN1CCN(c2ccc(Cl)cc2)CC1)c1ccc(F)cc1 | 2.86 ×10⁷ /M/min | 53.4 s | 0.0133 s⁻¹ |  |  | 
4 | O=C(CCCN1CCC(O)(c2ccc(Cl)cc2)CC1)c1cc(F)cc(F)c1 | 4.25 ×10⁶ /M/min | 47.4 s | 0.0153 s⁻¹ |  |  | 
5 | OC1(c2ccc(Cl)cc2)CCN(CC/C=C\c2ccc(F)cc2)CC1 | 3.35 ×10⁷ /M/min | 34.8 s | 0.0208 s⁻¹ |  |  | 
6 | O=C(CCCN1CCC(O)(c2ccc(Cl)cc2Cl)CC1)c1ccc(F)cc1 | 2.87 ×10⁸ /M/min | 69 s | 0.0117 s⁻¹ |  |  | 
7 | OC1(c2ccc(Cl)cc2)CCN(CCCSc2ccc(F)cc2)CC1 | 4.99 ×10⁸ /M/min | 44.4 s | 0.0165 s⁻¹ |  |  | 
8 | O=C(CCCN1CCC(O)(c2ccc(Cl)cc2)CC1)c1ccc(F)cc1F | 1.07 ×10⁷ /M/min | 30.6 s | 0.0227 s⁻¹ |  |  | 
9 | OC1(c2ccc(Cl)cc2)CCN(CCCC#Cc2ccc(F)cc2)CC1 | 6.41 ×10⁷ /M/min | 39 s | 0.0192 s⁻¹ |  |  | 
10 | O=C(CCCN1CCC(c2ccc(Cl)cc2)CC1)c1ccc(F)cc1 | 4.31 ×10⁸ /M/min | 51.6 s | 0.014 s⁻¹ |  |  | 
11 | O=C(CCCN1CCC(O)(c2cccc(Cl)c2)CC1)c1ccc(F)cc1 | 6.32 ×10⁸ /M/min | 71.4 s | 0.0107 s⁻¹ |  |  | 
12 | O=C(CCCN1CCC(O)(c2ccc(F)cc2)CC1)c1ccc(Cl)cc1 | 4.17 ×10⁷ /M/min | 54.6 s | 0.0128 s⁻¹ |  |  | 
13 | O=C(CCCN1CCC(O)(c2ccc(Cl)c(Cl)c2)CC1)c1ccc(F)cc1 | 2.95 ×10⁹ /M/min | 100 s | 0.007 s⁻¹ |  |  | 
14 | OC(CCCN1CCC(O)(c2ccc(Cl)cc2)CC1)c1ccc(F)cc1 (stereo unspecified) | 6.19 ×10⁶ /M/min | 75 s | 0.0095 s⁻¹ |  |  | 
15 | O=C(CCCN1CCC(O)(c2ccc(C(F)(F)F)cc2)CC1)c1ccc(F)cc1 | 1.36 ×10⁹ /M/min | 67.2 s | 0.0103 s⁻¹ |  |  | 
16 | OC1(c2ccc(Cl)cc2)CCN(CC#Cc2ccc(F)cc2)CC1 | 3.37 ×10⁶ /M/min | 46.2 s | 0.016 s⁻¹ |  |  | 
17 | O=C(CCCN1CCC(O)(c2ccc(Cl)cc2)CC1)c1ccc(Cl)cc1 | 1.38 ×10⁸ /M/min | 60 s | 0.0117 s⁻¹ |  |  | 
18 | CCCN(CCc1ccccc1)C1CCc2c(O)cccc2C1 (racemic) |  |  |  | 9.21 ×10⁶ /M/min | 0.00583 s⁻¹ | 
19 | OC1(c2ccc(Cl)cc2)CCN(CCCc2ccc(F)cc2)CC1 | 2.29 to 2.45 ×10⁷ /M/min | 27.6 to 34.2 s | 0.0222 to 0.0257 s⁻¹ |  |  | 
20 | CN(C)c1ccc(C2(O)CCN(CCCC(=O)c3ccc(F)cc3)CC2)cc1 | 1.64 ×10⁸ /M/min | 33.6 s | 0.0208 s⁻¹ |  |  | 
21 | O=C(CCCN1CCC(O)(c2ccccc2Cl)CC1)c1ccc(F)cc1 | 3.54 ×10⁸ /M/min | 36.6 s | 0.0193 s⁻¹ |  |  | 
22 | OC1(c2ccc(Cl)cc2)CCN(CC[C@H]2C[C@@H]2c2ccc(F)cc2)CC1 (racemic) | 6.07 ×10⁸ /M/min | 49.2 s | 0.0153 s⁻¹ |  |  | 
23 | OC1(c2ccc(Cl)cc2)CCN(CC/C=C/c2ccc(F)cc2)CC1 | 6.39 ×10⁷ /M/min | 44.4 s | 0.0127 s⁻¹ |  |  | 
24 | O=C(CCCN1CCC2(c3ccc(Cl)cc3)CC2C1)c1ccc(F)cc1 (stereo unspecified) | 2.03 ×10⁹ /M/min | 141 s | 0.005 s⁻¹ |  |  | 
25 | O=C(CCCN1CCC(O)(c2ccc(F)cc2)CC1)c1ccc(F)cc1 | 2.61 ×10⁸ /M/min | 55.2 s | 0.013 s⁻¹ |  |  | 
26 | O=C(CCCN1CCC(O)(c2ccccc2)CC1)c1ccc(F)cc1 | 1.22 ×10⁸ /M/min | 42.6 s | 0.017 s⁻¹ |  |  | 

Row | SMILES | Ka (D(2) dopamine receptor [1]) | T1/2 (D(2) dopamine receptor [2]) | Kdiss (D(2) dopamine receptor [3]) | Ka (D(2) dopamine receptor [4]) | Kdiss (D(2) dopamine receptor [5]) | inhibition at 10 µM (D(2) dopamine receptor [6])
27 | O=C(CCCN1CCC(O)(c2ccc(Cl)cc2)CC1)c1cc(F)ccc1F | 1.13 to 1.15 ×10⁷ /M/min | 34.8 to 37.8 s | 0.019 to 0.0248 s⁻¹ |  |  | 
28 | COC1(c2ccc(Cl)cc2)CCN(CCCC(=O)c2ccc(F)cc2)CC1 | 3.6 ×10⁸ /M/min | 61.8 s | 0.0113 s⁻¹ |  |  | 
29 | O=C(CCCN1CCC(O)(c2cc(Cl)cc(Cl)c2)CC1)c1ccc(F)cc1 | 6.58 ×10⁸ /M/min | 116 s | 0.00717 s⁻¹ |  |  | 
30 | O=C(CCCN1CCC(O)(c2ccc(Cl)cc2)CC1)c1cccc(F)c1F | 3.01 to 3.24 ×10⁷ /M/min | 24.6 to 36 s | 0.0215 to 0.0283 s⁻¹ |  |  | 
31 | O=C(CCCN1CCC(O)(c2ccc(Cl)cc2)CC1)c1cccc(F)c1 | 2.55 to 2.64 ×10⁷ /M/min | 42 to 45.6 s | 0.016 to 0.018 s⁻¹ |  |  | 
32 | O=C(CCCN1CCC(O)(c2ccc(Cl)cc2)CC1)c1ccccc1 | 6.33 ×10⁸ /M/min | 40.2 s | 0.0187 s⁻¹ |  |  | 
33 | O=C(CCCN1CCC(O)(c2ccc(Cl)cc2)CC1)c1ccc(F)c(F)c1 |  | 45 s | 0.0172 s⁻¹ |  |  | 
34 | O=C(CCCN1CCC(O)(c2ccc(Cl)cc2)CC1)c1ccccc1Cl | 3.16 ×10⁸ /M/min | 45.6 s | 0.0185 s⁻¹ |  |  | 
35 | O=C(CCCN1CCC(c2ccccc2)CC1)c1ccc(F)cc1 | 8.99 ×10⁷ /M/min | 59.4 s | 0.0118 s⁻¹ |  |  | 20%
36 | OC1(c2ccc(Cl)cc2)CCN(CCCCc2ccc(F)cc2)CC1 | 1.57 ×10⁸ /M/min | 37.8 s | 0.0185 s⁻¹ |  |  | 
37 | O=C(CCN1CCC(O)(c2ccc(Cl)cc2)CC1)c1ccc(F)cc1 | 1.03 to 1.33 ×10⁷ /M/min | 25.8 to 34.2 s | 0.0212 to 0.0325 s⁻¹ |  |  | 
38 | O=C(CCCN1CCC(O)(c2ccccc2)CC1)c1ccccc1 | 2.28 ×10⁷ /M/min | 58.8 s | 0.0118 s⁻¹ |  |  | 
39 | OC1(c2ccc(Cl)cc2)CCN(CC[C@H]2C[C@H]2c2ccc(F)cc2)CC1 (racemic) | 4.47 ×10⁷ /M/min | 30.6 s | 0.0228 s⁻¹ |  |  | 
40 | O=C(CCCN1CCC(O)(c2cccc(Cl)c2Cl)CC1)c1ccc(F)cc1 | 2.2 ×10⁹ /M/min | 137 s | 0.005 s⁻¹ |  |  | 
41 | O=C(CCCN1CCC(O)(c2cc(Cl)ccc2Cl)CC1)c1ccc(F)cc1 | 5.29 ×10⁸ /M/min | 76.2 s | 0.00933 s⁻¹ |  |  | 
42 | O=C(CCCN1CC=C(c2ccc(Cl)cc2)CC1)c1ccc(F)cc1 | 6.52 ×10⁷ /M/min | 65.4 s | 0.0108 s⁻¹ |  |  | 
43 | OC1(c2ccc(Cl)cc2)CCN(CCCOc2ccc(F)cc2)CC1 | 1.22 ×10⁹ /M/min | 48.6 s | 0.0152 s⁻¹ |  |  | 
44 | O=C(CCCN1CCC(O)(c2c(Cl)cccc2Cl)CC1)c1ccc(F)cc1 | 5.07 ×10⁸ /M/min | 40.2 s | 0.0175 s⁻¹ |  |  | 
45 | Cc1ccc(C2(O)CCN(CCCC(=O)c3ccc(F)cc3)CC2)cc1 | 1 ×10⁹ /M/min | 43.8 s | 0.0163 s⁻¹ |  |  | 
46 | OC1(c2ccc(Cl)cc2)CCN(CCC#Cc2ccc(F)cc2)CC1 | 1.61 ×10⁷ /M/min | 41.4 s | 0.0183 s⁻¹ |  |  | 
47 | O=C(CCCCN1CCC(O)(c2ccc(Cl)cc2)CC1)c1ccc(F)cc1 | 1.42 to 1.8 ×10⁸ /M/min | 18 to 28.8 s | 0.0275 to 0.0392 s⁻¹ |  |  | 
48 | Cc1ccccc1C(=O)CCCN1CCC(O)(c2ccc(Cl)cc2)CC1 | 3.66 ×10⁸ /M/min | 60.6 s | 0.0138 s⁻¹ |  |  | 
49 | O=C(CCCN1CCC(O)(c2ccc(Cl)cc2)CC1)c1c(F)cccc1F | 1.84 ×10⁷ /M/min | 39.6 s | 0.0182 s⁻¹ |  |  | 
50 | O=C(CCCN1[C@@H]2CC[C@H]1CC(O)(c1ccc(Cl)cc1)C2)c1ccc(F)cc1 (stereo partly specified) | 3.68 ×10⁹ /M/min | 215 s | 0.00317 s⁻¹ |  |  | 
51 | OC1(c2ccc(Cl)cc2)CCN(CCCCCc2ccc(F)cc2)CC1 | 5.51 ×10⁷ /M/min | 36 s | 0.0203 s⁻¹ |  |  | 
